Reference: publication PMC11847541, “Liver fatty acid binding protein FABP1 transfers substrates to cytochrome P450 4A11 for catalysis” (The Journal of Biological Chemistry, 2025)
Where “and” joins values, the source holds several entries; their conditions need not be identical. Equal entries are not always repeated. Where two headings read alike, the source gives them in different places. Values belong to the compound of their own block, whether it stands above or below them.

Molecular target: T1, FABP1 (Homo sapiens, UniProt P07148)
T1 construct: GST (N, cleaved yes); made in house; host or cells: Escherichia coli DH5α
T1 sequence (P07148 with tags, fused parts or gaps): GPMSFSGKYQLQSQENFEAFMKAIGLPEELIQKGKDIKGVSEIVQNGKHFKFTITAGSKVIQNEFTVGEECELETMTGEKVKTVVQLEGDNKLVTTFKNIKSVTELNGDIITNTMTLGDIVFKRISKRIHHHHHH
Assay: DAUDA displacement fluorescence titrations of DAUDA–FABP1 with fatty acids, fit in KinTek Explorer
Assay type: binding
Description: The FABP–DAUDA system was used to screen saturated fatty acids (C12 to C18) for binding to FABP, and the Kd values were estimated in competition with the fluorophore (using its known Kd) with the kinetic modeling software KinTek Explorer. The general model is shown in Fig. 5A, where the substrate is competed against the fluorescent DAUDA–FABP1 complex for binding, yielding a ternary DAUDA–FABP1–substrate complex that is accompanied by an attenuation in fluorescence.
Figure 5 Fluorescence titrations of DAUDA–FABP1 with fatty acids (“forward” titrations).A, model of all binding equilibria accounted for in the DAUDA displacement assays. In the fluorescence assays (λex = 335 nm), DAUDA (D) binds to FABP1 (F) to form a fluorescent (indicated with yellow flash) complex (FD), with which a lipid (S) is then competed against for binding. The binding of S attenuates the fluorescence (denoted with a smaller yellow flash) and forms a ternary complex (FDS). High concentrations of S may completely displace D to form FSS, a spectroscopically silent complex. Using this method, fluorescence titrations were carried out with the fatty acids (B) laurate, (C) myristate, (D) palmitate, (E) 16-hydroxypalmitate, and (F) stearate. Fluorescence at the emission maximum (482 nm) was monitored (as in Fig. 4) and normalized to the starting fluorescence (i.e., the FD complex prior to the addition of S). Each data point corresponds to one independent replicate. DAUDA, 11-dansylaminoundecanoic acid; FABP1, fatty acid binding protein.
For the titrations with lipids, solutions of FABP1 (0.5 μM) and DAUDA (0.25 μM) were prepared such that the fluorescent species was not present in excess ([75]). A baseline was recorded with phosphate buffer, and a starting (basis) spectrum was recorded of the FABP–DAUDA complex (1 ml). The lipid solutions were gradually added to the cuvette with gentle mixing (pipetting up and down ∼7× with a pipette tip), and spectra were recorded (Fig. S12A). Control titrations were also performed the same day with solvent alone (Fig. S12B) as a normalizing factor for the lipid titrations as fluorescence attenuation was also observed to a much lesser degree as a solvent effect (Fig. S12C, D). […] The data were processed such that within the lipid titration and the solvent titration, the F482 values were normalized to the starting value (the initial FABP1–DAUDA complex with nothing added, set to 100%). The relative fluorescence of the lipid titration was then normalized to the relative fluorescence of the solvent titration to adjust for fluorescence attenuation observed in the solvent titration (presumably from altering the fluorophore environment). Thus, the data were processed according to y=(F482/F482(initial))lipid/(F482/F482(initial))solvent , and the resulting values were plotted as a function of lipid concentration (Fig. S12E). The curve was imported into KinTek Explorer ([76]) and was fit to a kinetic model (Fig. S13) to determine the Kd values (Table 1). Within the KinTek software, all fluorescent species required fluorescence scaling factors to convert signal to concentration. Scaling factors for the FABP–DAUDA complex, FABP–DAUDA–lipid complex, and DAUDA alone were 460, 92, and 8, respectively.
Figure S12. Data processing for FABP1 titration with palmitate. Fluorescence spectrum of increasing additions of (A) palmitate (0-2 µM, added in C2H5OH) and (B) C2H5OH to a mixture of DAUDA (0.25 µM) and FABP1 (0.5 µM), performed as described in the Experimental Methods (see “Titrations of FABP1 with lipids, DAUDA”). C, fluorescence values at 482 nm (F482) from the titrations presented in parts A and B are normalized to the starting values (DAUDA-FABP1 complex, no volume added). Data are reported as a function of volume of titrant added to the cuvette (black, C2H5OH alone; red, palmitate in C2H5OH). […]

[1] = lipid binding to DAUDA-bound FABP1 (DAUDA displacement), read-out: Kd, FD + S ↔ FDS
[2] = lipid binding to apo-FABP1, estimated via kinetic modeling, read-out: Kd, F + S ↔ FS
[3] = lipid binding to ternary complex FDS (full displacement of DAUDA), low-affinity site, read-out: Kd, FDS + S ↔ FSS + D

Compound: O=C(O)CCCCCCCCCCCCCCCO [16-OH Palmitate (C16), 16-hydroxypalmitate]
koff, F + S ↔ FS (lipid (S) binding to apo-FABP1 (F), kinetic modeling, on-rate 9.0 × 10^7 M^−1 s^−1): 47 s⁻¹ | Kd [1]: 15 µM | koff, FD + S ↔ FDS (lipid binding to DAUDA-bound FABP1 (FD), on-rate 2.3 × 10^7 M^−1 s^−1): 350 s⁻¹ | Kd [2]: 0.52 µM | koff, FDS + S ↔ FSS + D (lipid binding to ternary complex FDS (full displacement of DAUDA)): 1500 s⁻¹ | Kd [3]: 63 µM

affinity difference between the two FABP1 binding sites: > 250 fold | koff of palmitate from FABP1 relative to binding of palmitate (1–10 μM) to P450 4A11 (faster): 10–100 fold | remaining activity at 0.01 µM (lipid 0.01 µM, FABP1 0.5 µM, DAUDA 0.25 µM, F482 normalized, read-out: % Fluorescence): 91% | remaining activity at 0.025 µM (lipid 0.025 µM, FABP1 0.5 µM, DAUDA 0.25 µM, F482 normalized): 85.5% | remaining activity at 0.05 µM (lipid 0.05 µM, FABP1 0.5 µM, DAUDA 0.25 µM, F482 normalized): 84.5% | remaining activity at 0.075 µM (lipid 0.075 µM, FABP1 0.5 µM, DAUDA 0.25 µM, F482 normalized): 79.1% | remaining activity at 0.1 µM (lipid 0.1 µM, FABP1 0.5 µM, DAUDA 0.25 µM, F482 normalized, read-out: % Fluorescence): 74.5% | remaining activity at 0.15 µM (lipid 0.15 µM, FABP1 0.5 µM, DAUDA 0.25 µM, F482 normalized): 67.2% | remaining activity at 0.2 µM (lipid 0.2 µM, FABP1 0.5 µM, DAUDA 0.25 µM, F482 normalized): 60.3% | remaining activity at 0.25 µM (lipid 0.25 µM, FABP1 0.5 µM, DAUDA 0.25 µM, F482 normalized): 55.8% | remaining activity at 0.35 µM (lipid 0.35 µM, FABP1 0.5 µM, DAUDA 0.25 µM, F482 normalized): 42.4% | remaining activity at 0.45 µM (lipid 0.45 µM, FABP1 0.5 µM, DAUDA 0.25 µM, F482 normalized): 36.3% | remaining activity at 0.6 µM (lipid 0.6 µM, FABP1 0.5 µM, DAUDA 0.25 µM, F482 normalized, read-out: % Fluorescence): 30.3% | remaining activity at 0.9 µM (lipid 0.9 µM, FABP1 0.5 µM, DAUDA 0.25 µM, F482 normalized): 21.6% | remaining activity at 1.15 µM (lipid 1.15 µM, FABP1 0.5 µM, DAUDA 0.25 µM, F482 normalized): 20.5% | remaining activity at 1.4 µM (lipid 1.4 µM, FABP1 0.5 µM, DAUDA 0.25 µM, F482 normalized): 19.4% | remaining activity at 1.9 µM (lipid 1.9 µM, FABP1 0.5 µM, DAUDA 0.25 µM, F482 normalized): 20.4% | koff (lipid (S) binding to apo-FABP1 (F), kinetic modeling, on-rate 9.0 × 10^7 M^−1 s^−1, read-out: koff, F + S ↔ FS): 4.1 s⁻¹ | Kd [1]: 0.01 µM | koff (lipid binding to DAUDA-bound FABP1 (FD), on-rate 2.3 × 10^7 M^−1 s^−1, read-out: koff, FD + S ↔ FDS): 0.24 s⁻¹ | Kd [2]: 0.046 µM | Kd [3]: 10 µM | koff (lipid binding to ternary complex FDS (full displacement of DAUDA), read-out: koff, FDS + S ↔ FSS + D): 240 s⁻¹ | tighter binding of palmitate to FABP1 than to P450 4A11 (ratio of Kd values): > 100 fold and 100 fold
Compound: CCCCCCCCCCCCCCCC(=O)O [Palmitate (C16), palmitate]
